In US11179438B1, “Chicken cathelicidins as a cancer therapy” (King Abdulaziz University, priority 2021, dated 2021):
Like-named read-outs stand apart in the source and are kept apart here. Ends that are not written are not given here.

Experiments:
[1] = test system: breast (MCF-7) and colon cancer (HCT116) cell lines; assay type: cell-based, human; details: for decline in the cell growth / survival rate: 48 h; for decline in the cell growth: 40 μg/ml, both cell lines; for growth: 72 h incubation, high concentration for cathelicidin-2 and -3, breast and colon cancer cell lines; for survival rate: cell line not stated
Protocol: (§1) The breast (MCF-7) and colon cancer (HCT116) cell lines were purchased from the American Type Culture Collection (Manassas, Va., USA) and maintained at 37° C. in a 1:1 mixture of Dulbecco's modified Eagle's medium DMEM high glucose (4.5 g/L) supplemented with 10% FBS in Corning®T75 flasks containing 1.2 g/l sodium bicarbonate (Sigma-Aldrich, St. Louis, Mo., USA), 2.5 mM L-glutamine (Invitrogen Life Technologies), 15 mM HEPES, and 0.5 mM sodium pyruvate supplemented with 400 ng/ml hydrocortisone (Sigma-Aldrich) and 10% fetal bovine serum (PAA Laboratories, Pasching, Austria) in a humidity incubator with 5% CO2 and 95% air. The culture medium was refreshed every 2-3 days for a period of 5-7 days to allow for recovery from cryopreservation and for confluency to be reached. For cell subculturing, the cells were digested with 0.25% trypsin and 0.03% EDTA solution (Invitrogen Life Technologies). Upon reaching 90% confluency, cell numbers were counted. The density of cells was 5 λ103 cells/cm^2. After that, the MCF-7 cells were seeded into three 96 well plates and treated with three chicken cathelicidins peptides for three period of incubations (24 h-48 h-72 h) (Li et al., 2014).
(§2) To assess the altered cell viability, Cell Counting Kit-8 (CCK-8) assay (Dojindo Laboratories, Kumamoto, Japan) was performed. Briefly, the cells were seeded in 96-well plates at 5×10^3 cells/well containing 180 μl of medium and cultured for up to 72 h. At the end of each experiment, 5 μl of CCk-8 solution (5 mg/ml) was added into each well, and the cells were incubated for 2 h at 37° C. The optical density value was measured by using BioTek microplate reader (Dynatech Laboratories Inc., Chantilly, Va., USA) at 450 nm. The median inhibition concentration (IC50) values were calculated using the probity model, and the inhibition rate of cell proliferation was calculated as: inhibition rate (%)=1−A450 (test)/A450 (control)×100%. Data were calculated from three independent experiments, each performed in triplicate (Li et al., 2014).

[2] = test system: human colon cancer cell line (HCT116); assay: Cell viability assay (CCK-8), HCT116; assay type: cell-based; details: 72 h
Protocol: as §1, §2

[3] = test system: Caspase-7 gene; assay: Expression of caspase-7 gene in MCF-7 cells (RT-PCR); assay type: cell-based, human
Protocol: (§3) Total RNA was isolated from MCF-7 cells after chicken cathelicidins treatment using EZ RNA Clean Up Plus DNase Kit (EZ BioResearch, St Louis, Mo., USA)) following the manufacturer's instructions. RT-PCR was performed by using 1 μg of total RNA samples in the Access RT-PCR System (Bioneer Corporation Co., Ltd, South Korea) under the following conditions: first-strand DNA was synthesized with 12 cycles at 37° C. for 10 sec, 48° C. for 4 min and 60° C. for 30 sec and finally, heat inactivation at 95° C. for 5 mins then denatured at 94° C. for 5 min for the first cycle but for 30 sec for the additional 35 cycles; annealing according to Table 2 for 30 sec and extension at 72° C. for 2 min; and a final extension at 72° C. for 10 min. The PCR products were then subjected to electrophoresis in a 1.2% agarose gel and stained with ethidium bromide.
(§4) For RT-qPCR, cDNA was synthesized by using 0.5 μg of total RNA with a SuperScriptIII® Cells Direct cDNA Synthesis kit (Bioneer, Inc, Daejeon, Republic of Korea). The levels of IL-18, cyclin D1, cyclin A1, caspase-3 and 7 mRNA were amplified in triplicate using the SYBR-Green® Real-time PCR master mix (Biotool LLC, Houston, Tex., USA) on a LightCycler®480 Real-Time PCR system (Roche, Basel, Switzerland). […] The relative levels of gene expression were quantified by using the comparative CT method of ^−ΔΔCt (Livak and Schmittgen, 2001).

[4] = test system: breast cancer cells (MCF-7); assay: Cell viability assay (CCK-8), MCF-7; assay type: cell-based, human; details: 72 h
Protocol: as §1, §2

[5] = test system: Caspase-3 gene; assay: Expression of caspase-3 gene in MCF-7 cells (RT-PCR); assay type: cell-based, human
Protocol: as §3, §4

[6] = moderate concentration (20 μg/ml)

“RVKRFWPLVPVAINTVAAGINLYKAIRRK [Cathelicidin-3]” was tested, and the “decline in the cell growth” value [1] was “about 7%”, the growth [1] was 16% and the development rate ([2]; low concentration) was 65%. The development rate [2, 6] was 43.5%, the “caspase-7 gene expression relative to untreated cells” value [3] was “two-fold” and the development rate ([4]; low concentration) was 73%. The development rate [4, 6] was 73% and the “caspase-3 gene expression relative to untreated cells” value [5] was “two times greater”.
`CC[C@H](C)[C@H](NC(=O)[C@H](CCCCN)NC(=O)[C@H](CCC(=O)O)NC(=O)[C@H](CCCCN)NC(=O)[C@H](CO)NC(=O)[C@H](CCCCN)NC(=O)[C@H](CCCNC(=N)N)NC(=O)[C@H](Cc1ccccc1)NC(=O)[C@H](Cc1ccccc1)NC(=O)[C@H](CC(=O)O)NC(=O)CNC(=O)[C@H](CC(C)C)NC(=O)[C@@H](N)CC(C)C)C(=O)NCC(=O)N[C@@H](CCCCN)C(=O)N[C@@H](CCC(=O)O)C(=O)N[C@@H](Cc1ccccc1)C(=O)N[C@@H](CCCCN)C(=O)N[C@@H](CCCNC(=N)N)C(=O)N[C@H](C(=O)N[C@H](C(=O)N[C@@H](CCC(N)=O)C(=O)N[C@@H](CCCNC(=N)N)C(=O)N[C@H](C(=O)N[C@@H](CCCCN)C(=O)N[C@@H](CC(=O)O)C(=O)N[C@@H](Cc1ccccc1)C(=O)N[C@@H](CC(C)C)C(=O)N[C@@H](CCCNC(=N)N)C(=O)N[C@@H](CC(N)=O)C(=O)N[C@@H](CC(C)C)C(=O)N[C@H](C(=O)N1CCC[C@H]1C(=O)N[C@@H](CCCNC(=N)N)C(=O)N[C@H](C(=O)N[C@@H](CCC(=O)O)C(=O)N[C@@H](CO)C(=O)O)[C@@H](C)O)C(C)C)[C@@H](C)CC)C(C)C)[C@@H](C)CC` [Cathelicidin-1] gave a survival rate ([1]; low concentration (10 μg/ml)) of 25% and a survival rate ([1]; moderate concentration (printed 10 μg/ml)) of 12%.
“RFGRFLRKIRRFRPKVTITIQGSARF [Cathelicidin-2]” was tested, and the “decline in the cell growth” value [1] was 10%, the growth [1] was 7% and the development rate ([2]; low concentration) was 61.3%. The development rate [2, 6] was 24%, the “caspase-7 gene expression relative to untreated cells” value [3] was “two-fold” and the development rate ([4]; low concentration) was 72%. For the same molecule, the development rate [4, 6] was 44% and the “caspase-3 gene expression relative to untreated cells” value [5] was “two times greater”.
